Results published in patent US20260325500A1, “METHODS AND COMPOSITIONS FOR TREATING ACUTE STRESS DISORDER” (BioXcel Therapeutics, Inc., priority 2022, published 2026).
Structures can show the parent of a compound that is named as a salt.

Tested on: aggressive behavior of male Swiss albino mice
Assay: Resident intruder task, aggressive behavior (Example 5)
Format: in vivo
Conditions: for agitation/aggression in resident mice: mouse, in vivo
Description: Animal groups: Swiss albino male mice were distributed in 13 different experimental groups with 6-14 mice per group as illustrated in Table 9. Each experimental group was also coded so that the experimenter became unaware of the true experimental group during RI assay.
Rationale: The resident-intruder stress is an ethologically relevant model to examine mechanisms underlying stress-related psychiatric disorders. In male rats, a single resident-intruder exposure activates LC neurons. Considered as a major stress response system, LC-NE activation is critical in maintaining arousal in response to acute stress.
Study drugs: The test substances (Dexmedetomidine hydrochloride, latrepirdine dihydrochloride hydrate and sodium valproate) were dissolved in 0.9% normal saline which served as the vehicle. β-Estradiol was dissolved in 0.9% normal saline.
Study design and dosing: Bilateral ovariectomy surgery was carried out in 3-4 weeks old female Swiss albino mice as per the standard methods (Alagwu and Nneli, 2005). Animals were anesthetized using Avertin (2,2,2-Tribromoethanol) at 250 mg/kg, i.p. and were laid down on the surgery table and fixed with adhesive plaster. A midline incision was made on the dorsal region below the rib and 1 cm lateral to the either side of midline, a small incision was made on fascia to isolate the adipose fat supporting the ovaries. By slowly pulling out the fat tissue, the ovary was identified and excised the following uterine horn ligation with silk sutures. Fascia was covered with sutures and similar procedure was repeated on the other side as well. Superficial skin layers were sutured and gentamicin (80 mg/kg, s.c.) was given as antibiotic and meloxicam (4 mg/kg, s.c.) as analgesic, then povidone iodine was applied on superficial skin layers. Polyethylene glycol (PEG) was applied to prevent drying of eye balls and kept for recovery period of 3 weeks (surgery was carried by a single experimenter). Male Swiss albino mice (25-40 grams, Resident animals) was housed individually i.e., 1 animal/cage with an ovariectomized female Swiss albino mice for a period of three weeks (Isolated habituation). During this habituation period, female mice were treated with β-Estradiol at a dose of 0.2 mg/kg, s.c. Male Swiss albino mice (10-20 grams, Intruder animals) were housed 5 animals/cage for a period of five days (Social habituation). On the day of exposure, animals were brought into the experimental room 60 minutes before starting the experiment, to habituate them to the experimental conditions. […]
Statistical analysis: Data obtained was compared with basal scoring by using Student's paired two tailed t-test. Duration of attack, and latency of attack between the groups was analyzed using One-Way ANOVA followed by Bonferroni's posthoc test. […]

Cc1ccc2c(c1)c1c(n2CCc2ccc(C)nc2)CCN(C)C1 [latrepirdine dihydrochloride hydrate]
duration of attack (1 mg/kg, 3 mg/kg and 10 mg/kg, i.p.): significantly decreased
agitation/aggression in resident mice: decreased agitation/aggression

Cc1ccc2c(c1)c1c(n2CCc2ccc(C)nc2)CCN(C)C1 [latrepirdine, 2,8-dimethyl-5-[2-(6-methylpyridin-3-yl)ethyl]-3,4-dihydro-1H-pyrido[4,3-b]indole]
mean duration of attack (latrepirdine 10 mg/kg, i.p.): 36.87 s
agitation/aggression in resident mice: significantly decreased agitation/aggression in resident mice
